Assay results: patent publication US20140107025A1, “OCULAR DRUG DELIVERY SYSTEM” (priority 2012, published 2014)

How the values were obtained:
[1] = tested on: corneal epithelial defects in New Zealand white rabbits; assay: Corneal epithelial impaired healing debridement model, rHGH in HYSTEM/GSSG gel (Example 3); type: in vivo; details: topical dexamethasone 0.1% 4x/day for 7 days; normal healing 4-5 days; some rabbits not completely closed at 7 days
From the text: A corneal epithelial impaired healing debridement model was developed by utilizing a validated epithelial debridement procedure and treating immediately postoperative with topical steroids (dexamethasone). The corneal epithelial defects were created surgically in a standardized and reproducible manner in both eyes. The normal healing for epithelial defects in normal healthy rabbits is 4-5 days. […] This model confirmed delayed epithelial wound healing in New Zealand white rabbits.
Rabbits were randomized post surgical intervention to maintain a masked study. The examiner was masked to the treatment arm.
Recombinant Human Growth Hormone (rHGH) was reconstituted and prepared as instructed, and was delivered topically to the eye via a crosslinked hyaluronic acid gel polymer HYSTEM (with glutathione GSSG) at a concentration of 4 ug/day in a 50 ul drop BID, for 7 days (see Example 2). The comparator arms are shown in Table 1: (1) the polymer HYSTEM with GSSG but without rHGH (group 1) and (2) dexamethasone alone (no polymer and no rHGH) (group 3). In vivo clinical exams were performed twice daily to determine percent corneal healing, corneal defect size, and percent of eyes (cornea) completely healed.

[2] = tested on: corneal epithelial defects in the eyes of New Zealand white rabbits; assay: Rabbit corneal epithelial debridement model with healing impaired by topical dexamethasone (Example 1); type: in vivo; details: for eyes with epithelial defect completely closed/healed by day 5: topical QID OU, all eyes on dexamethasone 0.1% QID, rHGH 100 μg/mL, 50 μL drop
From the text: A rabbit debridement model was used to assess the effect of topically applied rHGH on corneal epithelial defect closure in a model where epithelial closure was impaired by concomitantly administered topical steroids (Dexamethasone 0.1% QID). Standard epithelial defects were created in the eyes of nine New Zealand white rabbits by standard methods. Rabbits received topical dexamethasone QID (4×/day) to all 18 eyes. Rabbits were randomized to one of three treatment arms post surgery: a control arm of dexamethasone only QID OU (both eyes), a vehicle group of BSS (balanced salt solution) QID OU, and test article of rHGH QID OU. One drop (50 μL) of rHGH (reconstituted in Ringers Lactate to achieve a final concentration of 100 μg/mL) (n=3) was applied topically four times to both eyes. All eyes were also treated with one drop of an antibiotic solution after the surgical defect creation. Photographic assessment (twice daily) and fluorescein assessment were used to determine the speed and quality of epithelial defect closure. The corneal defect size was estimated in the photographs by obtaining the pixel count of the defect and dividing by the pixel count of the cornea. The animals were sacrificed on day 5.
The solid black bars represent percent of eyes completely healed when treated with rHGH administered topically whereas the shaded bars represent percent of eyes completely healed when treated with BSS (balanced saline solution). Over the course of this study, no eyes were completely healed when treated with dexamethasone alone.

Molecule | time of healing of epithelial defects [1] [days] | eyes with epithelial defect completely closed/healed by day 5 [2] | eyes starting to heal as quickly as Day 2 ([2]; Day 2, rHGH 100 μg/mL topical QID plus dexamethasone) [%] | speed of epithelial defect closure (photographic assessment) ([2]; comparison of treatment arms over 5 days) | tolerability of dosing ([2]; topical ocular dosing QID, 5 days)
C[C@@H]1C[C@H]2[C@@H]3CCC4=CC(=O)C=C[C@]4(C)[C@@]3(F)[C@@H](O)C[C@]2(C)[C@@]1(O)C(=O)CO [dexamethasone, reference compound] | 7 | 0/9 | – | – | –
rHGH: Recombinant human growth hormone; hydrophilic 22 Kda protein of 191 amino acids; Genotropin used in Example 2 | – | 9/9 | 10 | most rapid healing | tolerated the dosing well without clinical concerns
